Here are results for 6 molecules from patent publication US20090170067A1, “Simian tropic, recombinant human immunodeficiency-1 viruses” (The Rockefeller University, priority 2006, published 2009).

Assay [1] has as its system HIV-1NL4-3. The assay can be described thus: Sensitivity to RT inhibitors, TZM luciferase infection assay. It is filed as cell-based. Particulars: TZM-bl indicator cells, FIG. 5A,B.
Assay [2] deals with SIVMAC239. The assay is described as above. It is filed as cell-based, simian immunodeficiency virus. To be noted: TZM-bl indicator cells, FIG. 5A,B.
Assay [3] relates to stHIV/KB9. Described as above. It is filed as cell-based, simian-tropic HIV-1. To be noted: TZM-bl indicator cells, FIG. 5A,B.
Assay [4] relates to HIV-1NL4-3. The assay can be described thus: Protease inhibitor virus inhibition assay (infected HUT-R5 cells, readout on TZM-bl). It is filed as cell-based. To be noted: infected HuT-CCR5 cells, FIG. 5C.
Assay [5] relates to SIVMAC239. Described as above. It is filed as cell-based, simian immunodeficiency virus. To be noted: infected HuT-CCR5 cells, FIG. 5C.
Assay [6] has as its system stHIV/KB9. Described as above. It is filed as cell-based, simian-tropic HIV-1. To be noted: infected HuT-CCR5 cells, FIG. 5C.
For assay [7], the target named is rhesus macaque APOBEC3G (rhesus macaque). In words: cell-based or functional assay.
Chain of rhesus macaque APOBEC3G (rhesus macaque) (Q7YR24 whole entry): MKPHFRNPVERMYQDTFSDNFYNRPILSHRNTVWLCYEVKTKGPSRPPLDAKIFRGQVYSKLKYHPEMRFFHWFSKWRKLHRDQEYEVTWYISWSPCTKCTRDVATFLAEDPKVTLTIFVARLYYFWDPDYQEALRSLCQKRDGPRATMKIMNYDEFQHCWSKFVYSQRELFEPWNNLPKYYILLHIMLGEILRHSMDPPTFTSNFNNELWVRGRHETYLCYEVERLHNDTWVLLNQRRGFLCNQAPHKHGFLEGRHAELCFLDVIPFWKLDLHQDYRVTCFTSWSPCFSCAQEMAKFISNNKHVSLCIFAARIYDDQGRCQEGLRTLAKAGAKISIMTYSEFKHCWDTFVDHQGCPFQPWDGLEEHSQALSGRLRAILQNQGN
In assay [8] the target is HIV-1 capsid (CA) protein of the HIV-1NL4-3-based viruses (HIV/KB9/GFP, HIV(SVif)/KB9/GFP) (HIV-1 (NL4-3)) (UniProt P12493). The assay can be described thus: cell-based or functional assay.

For `Cc1cn([C@H]2C[C@H](N=[N+]=[N-])[C@@H](CO)O2)c(=O)[nH]c1=O` [AZT], the “inhibition of infection (luciferase, percentage of uninhibited level), result in words” value in assay [1], in assay [2] and in assay [3] was “equally sensitive” throughout.

Turning to `CC(C)CN(C[C@@H](O)[C@H](Cc1ccccc1)NC(=O)O[C@H]1CCOC1)S(=O)(=O)c1ccc(N)cc1` [amprenavir], the “inhibition of infectious virus generation, result in words” value in assay [4] is recorded as “effective inhibitors”; in assay [5], “ineffective or poorly inhibitory”; in assay [6] it was “potently inhibited”.

As for `Cc1ccnc2c1NC(=O)c1cccnc1N2C1CC1` [nevirapine], the entries for the “inhibition of infection (luciferase, percentage of uninhibited level), result in words” value in assay [1], in assay [2] and in assay [3] were “effective inhibitors”, “ineffective or poorly inhibitory” and “potently inhibited”, respectively.

As to “HIV-1 Vif protein of the HIV-1NL4-3-based viruses (HIV/KB9/GFP, B3HIV(SCA)/KB9/GFP) (from UniProt P12504 1-192)”, in assay [7], the single-cycle infectivity on CEMx174 cells of virus made in 293T cells with or without rhAPOBEC3G was 30 fold.

Consider “SIVMAC Vif protein (SIVMAC239) as expressed by HIV(SVif)/KB9/GFP and B3HIV(SCA,SVif)/KB9/GFP”, for which the fold decrease in single-cycle infectivity on CEMx174 cells of virus made in 293T cells with or without rhAPOBEC3G in assay [7] is less than 2 fold.

For the molecule “rhesus macaque TRIM5α (from UniProt Q0PF16 1-497)”, in assay [8], the single-cycle infectivity (GFP-positive cells) in CEMx174 cells expressing rhTRIM5α against unmodified CEMx174 cells was found to be 30 fold and the single-cycle infectivity (GFP-positive cells) in rhesus macaque 221 cells against unmodified CEMx174 cells is 70 fold.
